The data set has as its system Canis familiaris. Nature of the data set: Toxicity in dog assessed as change in cardiovascular variables up to 5 mg/kg by telemetry study. Also on record: dose 5 mg/kg. Type of data set: organism-based, Canis lupus familiaris, Heart. The following applies: in vivo.
For the molecule `CCc1ccc(OCc2ccccc2C(=O)Nc2ccc3nc(C)cc(N)c3c2)cc1`, the Activity entry was “Non-toxic”.
The value for `O=C(NCCCN1CCC2(CC1)OCc1ccccc12)[C@H]1CCCN1Cc1ccccc1` was “Non-toxic”.
The value for `O[C@H]1C[C@H](CN2CC[C@H](c3ccc(F)cc3Cl)[C@@H](O)C2)Cc2cccnc21` was “Non-toxic”; that for `COC(=O)C1Cc2ccccc2N1C(=O)CCN1CCC2(CCc3ccccc32)CC1` (stereo not drawn) was “Non-toxic”.
With `CCN1CCN(c2cc3[nH]c(C(=O)[C@]4(C)CC[C@](C)(O)CC4)nc3cc2C)CC1` the entry was “Non-toxic”; with `CN1CC(C(=O)NCCCN2CCC3(CCc4ccccc43)CC2)CC1=O` (stereo not drawn), “Non-toxic”; with `Cc1cccc2c1CC[C@H](CN1CCC(c3c(Cl)cccc3Cl)CC1)C[C@@H]2O`, “Non-toxic”.
As for `Cc1ccc2nc(NC(=O)c3ccc(Cl)cc3)nc(N[C@H]3CCCC[C@H]3NC(=N)N)c2c1`, the Activity result is listed as “Non-toxic”.

For the origin of these results see ChEMBL document CHEMBL1158463 (J Med Chem, 2009).
